The values that follow are results of earlier work, collected in article PMC6241861 (International Journal of Nanomedicine, 2018).

Series [1] concerns the target T1, human neutrophil elastase (Homo sapiens, UniProt P08246).
T1 sequence (P08246 30-267): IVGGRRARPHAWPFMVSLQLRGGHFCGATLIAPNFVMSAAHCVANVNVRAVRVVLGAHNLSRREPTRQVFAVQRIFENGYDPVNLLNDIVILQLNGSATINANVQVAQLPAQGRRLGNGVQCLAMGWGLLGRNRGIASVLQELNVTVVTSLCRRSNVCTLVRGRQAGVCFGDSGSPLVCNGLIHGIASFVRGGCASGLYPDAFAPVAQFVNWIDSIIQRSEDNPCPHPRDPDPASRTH

Series [2] concerns the target Pseudomonas aeruginosa elastase (Pseudomonas aeruginosa, UniProt P14756).

Pseudomonas aeruginosa elastase, sequence (P14756 198-498): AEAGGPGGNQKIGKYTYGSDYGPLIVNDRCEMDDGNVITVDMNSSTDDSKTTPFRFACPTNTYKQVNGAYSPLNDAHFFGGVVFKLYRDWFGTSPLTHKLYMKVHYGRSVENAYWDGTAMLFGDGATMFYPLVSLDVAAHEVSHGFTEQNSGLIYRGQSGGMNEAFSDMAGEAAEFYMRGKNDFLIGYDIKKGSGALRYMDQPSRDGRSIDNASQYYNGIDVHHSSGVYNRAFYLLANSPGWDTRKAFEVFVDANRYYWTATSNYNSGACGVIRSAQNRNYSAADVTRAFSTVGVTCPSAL

LL37: the “Degradation by leukocyte elastase [HNE]” value in series [1] is given as “degraded”. Also, the “Degradation by P. aeruginosa elastase [PE]” value in series [2] is “degraded”.
